Among the data in ChEMBL document CHEMBL3091345, “Strepsesquitriol, a rearranged zizaane-type sesquiterpenoid from the deep-sea-derived actinomycete Streptomyces sp. SCSIO 10355” (2013) are inhibition values, retold here.

For orientation: inhibition means the share of the control response that was lost under treatment.

Molecules are shown by their SMILES.

For the assay, the system named is RAW264.7. In words: Antiinflammatory activity in mouse RAW264.7 cells assessed as inhibition of LPS-induced TNFalpha production at 100 uM treated 4 hrs before LPS challenge measured after overnight incubation by ELISA. The assay is classed as functional. (In general: ELISA stands for enzyme-linked immunosorbent assay.)

Take `C[C@H]1C[C@@H](O)[C@]23C[C@H](CC[C@]12O)C(C)(C)[C@]3(C)O`: the inhibition at 100 µM turned out to be 35.4%. The figure for `Cc1ccc(S(=O)(=O)N[C@@H](Cc2ccccc2)C(=O)CCl)cc1` [TPCK] is 60.6%.
